Data: patent US20250332173A1, “COMPOUNDS AND METHODS FOR MODULATING NUCLEIC ACID SPLICING” (REMIX THERAPEUTICS INC., priority 2021, published 2025)
Structures can show the parent of a compound that is named as a salt. Where two headings read alike, the source gives them in different places.

Columns and labels:
Format in all cases: cell-based, human
[1] = tested on: HTT mRNA; assay: RT-qPCR splicing assay, HTT canonical junction (CJ) and alternative junction (AJ) mRNA; settings: Homo sapiens; for AC50: increase in HTT alternative junction (AJ) mRNA, read-out: HTT AJ AC50
In short: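 Read-out is one-step RT-qPCR on cell lysates detecting the exon-exon junction of each isoform, normalized to a housekeeping gene (PPIA in A673, GAPDH or GUSB in K562).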

[2] = tested on: MYB; assay: HiBiT protein abundance assay, MYB HiBiT K562 cell line; settings: HiBiT K562 cell line, 24 hours, top dose 10 μM; read-out: Effect on protein abundance, MYB (IC50 category)
In short: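 Tagged-protein abundance measured by split-NanoBiT luminescence after lysis, following 24 h compound exposure (37° C; 10 μM top, 3-fold, 10 points; DMSO ≤0.25%) of HiBiT knock-in K562 cells. Percent response vs DMSO and unmodified-cell controls; 4-parameter logistic interpolation at 50% gave IC50.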

[3] = tested on: Target C; assay: HiBiT protein abundance assay, Target C (Promega Nano-Glo HiBiT Lytic Detection System, knock-in K562 cell line); settings: Homo sapiens, K562, 24 h, HiBiT K562 cell line, 24 hours, top dose 10 μM; read-out: Effect on protein abundance, Target C (IC50 category)
In short: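 Protein abundance was read by Nano-Glo HiBiT lytic luminescence after 24 h compound exposure (10-point, threefold series from 10 μM final) of HiBiT knock-in K562 cells. Parental K562 served as baseline; the 50%-abundance concentration was interpolated from a four-parameter logistic fit.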

[4] = decrease in HTT canonical junction (CJ) mRNA, RT-qPCR, read-out: HTT CJ IC50
[5] = Table 5 panel, canonical junction qPCR, compound concentration having 50% response in CJ decrease, read-out: HTT IC50 (decrease in CJ mRNA levels)

Structure (SMILES)	IC50 [1, 4]	AC50 ([1]; RT-qPCR)	IC50 [1, 5]	IC50 [2]	IC50 [3]
Cc1cn2nc(-c3ccc4c(=O)n(C5CCNCC5)ccc4c3)cc(C(=O)N(C)C)c2n1 [Compound 524, N, N, 2-trimethyl-6-[1-oxo-2-(4-piperidyl)-6-isoquinolyl]imidazo[1,2-b]pyridazine-8-carboxamide]	> 10000 nM	> 10000 nM	> 10000 nM	> 10000 nM	> 10000 nM
CCN1CCC(n2ncc3cc(-c4cc(C)c5nc(C)cn5n4)cc(O)c3c2=O)CC1 [Compound 542]	< 100 nM	< 100 nM	< 100 nM	< 100 nM	< 100 nM
Cc1cn2nc(-c3cc(F)c4c(=O)n(C5CCNC5)cnc4c3)cc(C)c2n1 (centres unmarked) [Compound 589, 7-{2,8-dimethylimidazo[1,2-b]pyridazin-6-yl}-5-fluoro-3-(pyrrolidin-3-yl)quinazolin-4-one]	> 10000 nM	> 10000 nM	> 10000 nM	1000 to 10000 nM	> 10000 nM
CCN1CCC(n2ncc3cc(-c4cc(C)c5nc(C)cn5n4)cc(F)c3c2=O)CC1 [Compound 537]	< 100 nM	< 100 nM	< 100 nM	100 to 1000 nM	100 to 1000 nM
Cc1cn2nc(-c3cc(N)c4c(=O)n([C@@H]5CCNC5)ccc4c3)cc(C)c2n1 [Compound 646, 8-amino-6-(2,8-dimethylimidazo[1,2-b]pyridazin-6-yl)-2-[(3R)-pyrrolidin-3-yl]isoquinolin-1-one]	> 10000 nM	> 10000 nM	> 10000 nM	1000 to 10000 nM	> 10000 nM
CNc1cc(-c2cc(C)c3nc(C)cn3n2)cc2ccn([C@H]3CCNC3)c(=O)c12 [Compound 647, 6-(2,8-dimethylimidazo[1,2-b]pyridazin-6-yl)-8-(methylamino)-2-[(3S)-pyrrolidin-3-yl]isoquinolin-1-one]	> 10000 nM	1000 to 10000 nM	1000 to 10000 nM	1000 to 10000 nM	> 10000 nM
Cc1cn2nc(-c3ccc4c(=O)n(C5CCN(C)CC5)cnc4c3)cc(C)c2n1 [Compound 176]	1000 to 10000 nM	1000 to 10000 nM	1000 to 10000 nM	100 to 1000 nM	1000 to 10000 nM
CN(c1ccc2c(=O)n(-c3ccc4nn(C)cc4c3)cnc2c1)C1CCNCC1 [Compound 180]	> 10000 nM	> 10000 nM	> 10000 nM	> 10000 nM	> 10000 nM
Cc1cn2nc(-c3cc(O)c4c(=O)n(C5CCN(CCF)CC5)ncc4c3)cc(C)c2n1 [Compound 553]	< 100 nM	< 100 nM	< 100 nM	100 to 1000 nM	100 to 1000 nM
Cc1cn2nc(-c3ccc4c(=O)n(C5CCNCC5)ccc4c3)cc(CC(N)=O)c2n1 [Compound 528, 2-(2-methyl-6-(1-oxo-2-(piperidin-4-yl)-1,2-dihydroisoquinolin-6-yl)imidazo[1,2-b]pyridazin-8-yl) acetamide]	1000 to 10000 nM	100 to 1000 nM	100 to 1000 nM	1000 to 10000 nM	100 to 1000 nM
CCc1cn(C2CCNCC2)c(=O)c2c(F)cc(-c3cc(F)c4nc(C)cn4c3)cc12 [Compound 558, 4-ethyl-8-fluoro-6-{8-fluoro-2-methylimidazo[1,2-a]pyridin-6-yl}-2-(piperidin-4-yl)isoquinolin-1-one]	1000 to 10000 nM	1000 to 10000 nM	1000 to 10000 nM	100 to 1000 nM	1000 to 10000 nM
C=Cc1cn(C2CCNCC2)c(=O)c2c(F)cc(-c3cc(F)c4nc(C)cn4c3)cc12 [Compound 559, 4-ethenyl-8-fluoro-6-{8-fluoro-2-methylimidazo[1,2-a]pyridin-6-yl}-2-(piperidin-4-yl)isoquinolin-1-one]	100 to 1000 nM	< 100 nM	< 100 nM	< 100 nM	100 to 1000 nM
Cc1cn2nc(-c3ccc4c(=O)n(C5CCNCC5)ccc4c3)cc(Oc3ccc(F)cc3)c2n1 [Compound 546, 6-[8-(4-fluorophenoxy)-2-methyl-imidazo[1,2-b]pyridazin-6-yl]-2-(4-piperidyl) isoquinolin-1-one; hydrochloride]	< 100 nM	< 100 nM	< 100 nM	< 100 nM	< 100 nM
CN1CCC(c2ccc3c(=O)n(-c4ccc5nn(C)cc5c4)cnc3c2)CC1 [Compound 177]	> 10000 nM	> 10000 nM	> 10000 nM	> 10000 nM	> 10000 nM
Cc1cn2nc(-c3cc4ncn(C5CCNCC5)c(=O)c4cc3F)cc(C)c2n1 [Compound 585, 7-{2,8-dimethylimidazo[1,2-b]pyridazin-6-yl}-6-fluoro-3-(piperidin-4-yl)quinazolin-4-one]	1000 to 10000 nM	1000 to 10000 nM	1000 to 10000 nM	1000 to 10000 nM	1000 to 10000 nM
Cc1cn2nc(-c3ccc4c(=O)n(C5CCNCC5)ccc4c3)cc(-n3ccccc3=O)c2n1 [Compound 552, 6-[2-methyl-8-(2-oxo-1-pyridyl)imidazo[1,2-b]pyridazin-6-yl]-2-(4-piperidyl)isoquinolin-1-one]	> 10000 nM	> 10000 nM	> 10000 nM	1000 to 10000 nM	> 10000 nM
CCOC(=O)c1cc(-c2ccc3c(=O)n(C4CCNCC4)ccc3c2)nn2cc(C)nc12 [Compound 529, ethyl 2-methyl-6-[1-oxo-2-(4-piperidyl)-6-isoquinolyl]imidazo[1,2-b]pyridazine-8-carboxylate]	1000 to 10000 nM	100 to 1000 nM	100 to 1000 nM	100 to 1000 nM	100 to 1000 nM
Cc1cc(-c2cc(O)c3c(=O)n(C4CCNC5(CC5)C4)ncc3c2)cc2cn(C)nc12 (centres unmarked) [Compound 561]	100 to 1000 nM	100 to 1000 nM	100 to 1000 nM	100 to 1000 nM	100 to 1000 nM
COc1cc(-c2ccc3c(=O)n(C4CCNCC4)ccc3c2)nn2cc(C)nc12 [Compound 514, 6-(8-methoxy-2-methyl-imidazo[1,2-b]pyridazin-6-yl)-2-(4-piperidyl) isoquinolin-1-one; hydrochloride]	< 100 nM	< 100 nM	< 100 nM	< 100 nM	< 100 nM
Cc1cc(-c2ccc3c(=O)n(N4CCN(C)CC4)cnc3c2)cc2cn(C)nc12 [Compound 175]	1000 to 10000 nM	> 10000 nM	1000 to 10000 nM	1000 to 10000 nM	> 10000 nM
Cc1cn2cc(-c3cc(F)c4c(=O)n(C5CC(C)NC(C)C5)ccc4c3)cc(F)c2n1 (centres unmarked) [Compound 651]	100 to 1000 nM	< 100 nM	< 100 nM	< 100 nM	100 to 1000 nM
Cc1cn2nc(-c3ccc4c(=O)n(C5CCNCC5)ccc4c3)cc(Cc3nnn[nH]3)c2n1 [Compound 536, 6-[2-methyl-8-(1H-tetrazol-5-ylmethyl)imidazo[1,2-b]pyridazin-6-yl]-2-(4-piperidyl) isoquinolin-1-one]	> 10000 nM	> 10000 nM	> 10000 nM	> 10000 nM	> 10000 nM
CNC(=O)c1cc(-c2ccc3c(=O)n(C4CCNCC4)ccc3c2)nn2cc(C)nc12 [Compound 518, N, 2-dimethyl-6-[1-oxo-2-(4-piperidyl)-6-isoquinolyl]imidazo[1,2-b]pyridazine-8-carboxamide]	> 10000 nM	> 10000 nM	> 10000 nM	1000 to 10000 nM	1000 to 10000 nM
Cc1cn2nc(-c3cc(F)c4c(=O)n(C5CCN(C)CC5)ncc4c3)cc(C)c2n1 [Compound 539]	< 100 nM	< 100 nM	< 100 nM	< 100 nM	< 100 nM
Cc1cn2nc(-c3ccc4c(=O)n(C5CCNCC5)ccc4c3)cc(Cc3nnc[nH]3)c2n1 [Compound 535, 6-[2-methyl-8-(4H-1,2,4-triazol-3-ylmethyl)imidazo[1,2-b]pyridazin-6-yl]-2-(4-piperidyl) isoquinolin-1-one]	1000 to 10000 nM	1000 to 10000 nM	1000 to 10000 nM	1000 to 10000 nM	1000 to 10000 nM
Cc1cn2cc(-c3cc(F)c4c(=O)n(C5CCNC6(CC6)C5)ncc4c3)cc(Cl)c2n1 (centres unmarked) [Compound 556]	100 to 1000 nM	100 to 1000 nM	100 to 1000 nM	100 to 1000 nM	100 to 1000 nM
Cn1ccc2nn(-c3ccc4c(=O)n(C5CCNCC5)ccc4c3)cc2c1=O [Compound 522, 6-{5-methyl-4-oxopyrazolo[4,3-c]pyridin-2-yl}-2-(piperidin-4-yl)isoquinolin-1-one]	> 10000 nM	> 10000 nM	> 10000 nM	1000 to 10000 nM	> 10000 nM
Cc1cn2nc(-c3ccc4c(=O)n(C5CCNCC5)ccc4c3)cc(C(N)=O)c2n1 [Compound 523, 2-methyl-6-[1-oxo-2-(4-piperidyl)-6-isoquinolyl]imidazo[1,2-b]pyridazine-8-carboxamide]	1000 to 10000 nM	> 10000 nM	> 10000 nM	1000 to 10000 nM	1000 to 10000 nM
